Assay results: paper PMC9486129, “An evolutionary divergent thermodynamic brake in ZAP-70 fine-tunes the kinetic proofreading in T cells” (The Journal of Biological Chemistry, 2022)
Where a chain is given by its changes, count along the chain named. Several values for one entry are separate records, joined by “and”; a condition that tells them apart may be missing. Equal entries are not always repeated. Where a SMILES comes first, the peptide text is derived from it. [ ]: non-standard residue; d: D form. pY = N[C@@H](Cc1ccc(OP(=O)(O)O)cc1)C(=O)O

Experiments:
tSH2R192A of ZAP-70 = target: T1, tSH2R192A of ZAP-70 (Homo sapiens, UniProt P43403); test: Isothermal titration calorimetry, ZAP-70 tSH2R192A (C-SH2 mutant)
T1 sequence (P43403 1-256 R190A): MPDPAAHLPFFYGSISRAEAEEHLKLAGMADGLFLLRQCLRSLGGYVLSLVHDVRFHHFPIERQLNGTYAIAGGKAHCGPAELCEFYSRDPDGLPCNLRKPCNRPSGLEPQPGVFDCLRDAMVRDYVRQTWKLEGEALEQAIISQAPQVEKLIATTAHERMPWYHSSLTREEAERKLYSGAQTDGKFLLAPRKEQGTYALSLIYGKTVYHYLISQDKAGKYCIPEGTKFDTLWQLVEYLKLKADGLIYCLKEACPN
Protocol: We probed Kd1 and Kd1∗ by fluorescence spectroscopy and Kd2 and Kd1∗ by ITC. To probe the Kd2 , we used ^tSH2R190A mutant that impairs phosphotyrosine binding to C-SH2 PBP (Figs. 1E and S1F).
ITC studies were carried out using Malvern-PEAQ_ITC at 20 °C. […] The Kd , ΔH, and ΔS were fitted into two-site sequential fit using ORIGIN as described previously ([33]). In the ITC experiments with C-SH2 domain mutant (R190A), the protein was buffer exchanged to 20 mM Hepes pH 8.2, 150 mM NaCl, and 5 mM β-mercaptoethanol.

Syk tSH2 domain = target: T2, Syk tSH2 domain (Homo sapiens, UniProt P43405); test: Steady-state intrinsic tryptophan fluorescence titration, Syk tSH2; assay type: binding; details: 25 °C, 0.5 μM tSH2, SD from three independent experiments
T2 construct: Syk tSH2 (7–263), cloned in pGEX6P1 vector; GST (N, cleaved yes); host or cells: E. coli BL21(DE3)
Protocol: (§1) The dissociation constant ( Kd ) was derived by fitting the normalized intensity (F0/F) versus ligand concentration using the following equation: F0/F=Bmax∗X^nH/(Kd^nH+X^nH) where F0 and F is fluorescence intensity in absence and presence of ligand, respectively. Bmax is the maximum binding, and nH is the Hill coefficient. The Hill coefficient (nH) was also determined from Hill plot ([70]).

ZAP-70 tSH2 domain = target: T3, ZAP-70 tSH2 domain (Homo sapiens, UniProt P43403); test: Stopped-flow fluorescence binding kinetics, ZAP-70 tSH2 wild type; details: 10 °C
T3 construct: ZAP-70 tSH2 WT (1–256), cloned in pSKB2 vector; made in house; host or cells: E. coli BL21(DE3)
T3 sequence (P43403 1-256): T1 sequence (P43403 1-256 R190A) with A190R
Protocol: We observed that the fluorescence intensity decay in two steps, fast (<200 ms) and slow (>20 s) (Fig. 3A). […] All kinetic data were first normalized against the highest intensity and then subtracted by the blank (protein only sample) (Fig. 3, A and B) and fitted to a one-site association kinetics (Table 1).
The change in fluorescence intensity was measured at λex 290 nm, λem 350 nm, and 10 °C ([71]). […] Each transient was measured over 200s (for slow kinetics) or 1s (for fast kinetics), interval with 1500 and 101 time points, respectively. For each sample, a blank dataset was recorded by measuring the change in intensity for protein only. Each data set was normalized against the maximum intensity observed for the respective sample at time 0. The normalized sample was further corrected by blank subtraction. The observed rate (kobs) was derived by fitting the change in intensity with respect to time by fitting to association kinetics equation implemented in Prism. Y=Y0+(Ymax−Y0)(1−e^[…]) where, Y0 is the intensity at time 0, Ymax is the maximum intensity, k is rate constant.

tSH2 domain of ZAP-70 = target: T4, tSH2 domain of ZAP-70 (Homo sapiens, UniProt P43403); test: Steady-state intrinsic tryptophan fluorescence titration, ZAP-70 tSH2 wild type; assay type: binding
T4 construct: ZAP-70 tSH2 WT (1–256), cloned in pSKB2 vector; made in house; host or cells: E. coli BL21(DE3)
T4 sequence (P43403 1-256): T1 sequence (P43403 1-256 R190A) with A190R
Protocol: as §1

| SMILES | Kd (tSH2R192A of ZAP-70) [µM] | Kd (Syk tSH2 domain) | kobsfast (ZAP-70 tSH2 domain; 100 nM tSH2, 30 μM peptide, 20 mM Tris pH 8.0, 150 mM NaCl, 5% glycerol, 5 mM β-mercaptoethanol, λex 290/λem 350 nm, 1 s transients, SD from three independent experiments) [s⁻¹] | Slow binding step (in words) (ZAP-70 tSH2 domain; wild-type tSH2) | Subsequent (second) binding step (tSH2 domain of ZAP-70) |
| --- | --- | --- | --- | --- | --- |
| CC(C)C[C@H](NC(=O)[C@H](CC(N)=O)NC(=O)[C@H](CC(C)C)NC(=O)[C@H](CCC(=O)O)NC(=O)[C@H](CC(N)=O)NC(=O)[C@H](Cc1ccc(OP(=O)(O)O)cc1)NC(=O)[C@H](CC(C)C)NC(=O)[C@H](CCC(N)=O)NC(=O)[C@@H](N)CC(N)=O)C(=O)NCC(=O)N[C@@H](CCCNC(=N)N)C(=O)N[C@@H](CCCNC(=N)N)C(=O)N[C@@H](C)C(=O)N[C@@H](CCC(=O)O)C(=O)N[C@@H](Cc1ccc(OP(=O)(O)O)cc1)C(=O)N[C@@H](CC(=O)O)C(=O)N[C@H](C(=O)N[C@@H](CC(C)C)C(=O)N[C@@H](CC(=O)O)C(=O)O)C(C)C [ITAM-Y2P-ζ1 E13A] | 9.8 ± 0.75 | – | – | – | – |
| CC(C)C[C@H](NC(=O)CNC(=O)[C@@H](N)CC(=O)O)C(=O)N[C@@H](Cc1ccc(OP(=O)(O)O)cc1)C(=O)N[C@@H](CCC(N)=O)C(=O)NCC(=O)N[C@@H](CC(C)C)C(=O)N[C@@H](CO)C(=O)N[C@H](C(=O)N[C@@H](C)C(=O)N[C@H](C(=O)N[C@@H](CCCCN)C(=O)N[C@@H](CC(=O)O)C(=O)N[C@H](C(=O)N[C@@H](Cc1ccc(OP(=O)(O)O)cc1)C(=O)N[C@@H](CC(=O)O)C(=O)N[C@@H](C)C(=O)N[C@@H](CC(C)C)C(=O)N[C@@H](Cc1c[nH]cn1)C(=O)O)[C@@H](C)O)[C@@H](C)O)[C@@H](C)O [ITAM-Y2P-ζ3] (H-DGL[pY]QGLSTATKDT[pY]DALH-OH) | 12 ± 0.9 | 69.8 nM and 65 to 70 nM | – | – | – |
| CC(C)C[C@H](NC(=O)[C@H](CC(N)=O)NC(=O)[C@H](CC(C)C)NC(=O)[C@H](CCC(=O)O)NC(=O)[C@H](CC(N)=O)NC(=O)[C@H](Cc1ccc(OP(=O)(O)O)cc1)NC(=O)[C@H](CC(C)C)NC(=O)[C@H](CCC(N)=O)NC(=O)[C@@H](N)CC(N)=O)C(=O)NCC(=O)N[C@@H](CCCNC(=N)N)C(=O)N[C@@H](CCCNC(=N)N)C(=O)N[C@@H](CCC(=O)O)C(=O)N[C@@H](CCC(=O)O)C(=O)N[C@@H](Cc1ccc(O)cc1)C(=O)N[C@@H](CC(=O)O)C(=O)N[C@H](C(=O)N[C@@H](CC(C)C)C(=O)N[C@@H](CC(=O)O)C(=O)O)C(C)C [ITAM-YP-ζ1] | – | – | 28.60 ± 5.84 | no detectable slow binding | no subsequent binding was observed |
